# Target: T1, CRTH2 receptor (Homo sapiens, UniProt Q9Y5Y4)
# T1 sequence (Q9Y5Y4 1-395): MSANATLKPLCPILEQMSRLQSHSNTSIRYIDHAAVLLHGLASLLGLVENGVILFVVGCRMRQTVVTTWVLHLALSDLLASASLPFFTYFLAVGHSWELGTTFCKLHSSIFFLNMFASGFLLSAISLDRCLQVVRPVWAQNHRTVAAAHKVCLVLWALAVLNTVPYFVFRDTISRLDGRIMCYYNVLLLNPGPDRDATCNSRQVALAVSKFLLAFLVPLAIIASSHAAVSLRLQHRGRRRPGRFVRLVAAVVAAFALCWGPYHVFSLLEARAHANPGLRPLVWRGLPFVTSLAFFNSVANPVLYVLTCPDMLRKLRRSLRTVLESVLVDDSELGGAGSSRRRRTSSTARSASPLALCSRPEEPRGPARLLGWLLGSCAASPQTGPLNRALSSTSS
# Assay: CRTH2 radioligand binding assay ([3H]-PGD2 displacement, SPA)
# Settings: HEK cell membranes expressing the CRTH2 receptor, 1 nM [3H]-PGD2
# Procedure: Radioligand Binding Assay
# The receptor binding assay is performed in a final volume of 200 μL binding buffer [10 mM BES (pH 7.4), 1 mM EDTA, 10 mM manganese chloride, 0.01% BSA] and 1 nM [^3H]-PGD2 (Amersham Biosciences UK Ltd). Ligands are added in assay buffer containing a constant amount of DMSO (1% by volume). Total binding is determined using 1% by volume of DMSO in assay buffer and non-specific binding is determined using 10 μM of unlabeled PGD2 (Sigma). Human embryonic kidney (HEK) cell membranes (3.5 μg) expressing the CRTH2 receptor are incubated with 1.5 mg wheatgerm agglutinin SPA beads and 1 nM [^3H]-PGD2 (Amersham Biosciences UK Ltd) and the mixture incubated for 3 hours at room temperature. Bound [^3H]-PGD2 is detected using a Microbeta TRILUX liquid scintillation counter (Perkin Elmer). Compound IC50 value is determined using a 6-point dose response curve in duplicate with a semi-log compound dilution series. IC50 calculations are performed using Excel and XLfit (Microsoft), and this value is used to determine a Ki value for the test compound using the Cheng-Prusoff equation.
row,IC50 [nM],Structure (SMILES)
1,6.3,"CCc1nc2c(F)ccc(OCC(=O)O)c2c(OC(F)F)c1Cc1ccc(-c2ncco2)cc1 [Example 2, [4-difluoromethoxy-2-ethyl-8-fluoro-3-(4-oxazol-2-ylbenzyl)quinolin-5-yloxy]acetic acid]"
2,5.4,"CCc1nc2c(F)ccc(OCC(=O)O)c2c(OC(F)F)c1Cc1ccc(-n2cccn2)cc1 [Example 1, [4-difluoromethoxy-2-ethyl-8-fluoro-3-(4-pyrazol-1-ylbenzyl)quinolin-5-yloxy]acetic acid]"

# Source: patent publication US8173812B2, “Quinolines and their therapeutic use” (Pulmagen Therapeutics (Asthma) Limited, priority 2007, dated 2012)
